Results published in ChEMBL document CHEMBL1221281, “Discovery of 2-(4-((1H-1,2,4-triazol-1-yl)methyl)-5-(4-bromophenyl)-1-(2-chlorophenyl)-1H-pyrazol-3-yl)-5-tert-butyl-1,3,4-thiadiazole (GCC2680) as a potent, selective and orally efficacious cannabinoid-1 receptor antagonist” (Bioorg Med Chem, 2010).
Calls of active or inactive are those of the source. The calls are words filed in the database; no cut-off is given here.

How the values were obtained:
Cytochrome P450 3A4 = Cytochrome P450 3A4 (Homo sapiens, UniProt P08684); assay: Inhibition of CYP3A4 in human liver microsomes after 30 mins; type: ADME, Microsome
Cytochrome P450 3A4, sequence (P08684 whole entry): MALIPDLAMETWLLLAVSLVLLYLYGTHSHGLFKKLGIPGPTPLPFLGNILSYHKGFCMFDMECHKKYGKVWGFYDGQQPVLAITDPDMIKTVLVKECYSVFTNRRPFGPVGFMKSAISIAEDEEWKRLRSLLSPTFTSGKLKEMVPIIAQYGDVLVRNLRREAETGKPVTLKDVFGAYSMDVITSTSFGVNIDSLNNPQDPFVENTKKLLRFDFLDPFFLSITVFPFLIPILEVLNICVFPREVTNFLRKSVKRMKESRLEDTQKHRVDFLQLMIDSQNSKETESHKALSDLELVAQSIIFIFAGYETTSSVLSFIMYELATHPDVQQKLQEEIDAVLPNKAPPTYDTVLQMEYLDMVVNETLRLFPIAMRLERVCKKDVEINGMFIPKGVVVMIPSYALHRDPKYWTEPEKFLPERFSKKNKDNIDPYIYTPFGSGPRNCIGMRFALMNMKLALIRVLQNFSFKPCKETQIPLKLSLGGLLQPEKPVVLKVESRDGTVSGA

Cannabinoid receptor 2 = Cannabinoid receptor 2 (Homo sapiens, UniProt P34972); assay: Displacement of [3H]WIN-55212-2 from human CB2 receptor expressed in CHO-K1 cells after 1 hr by liquid scintillation counting; type: cell-based
Cannabinoid receptor 2, sequence (P34972 whole entry): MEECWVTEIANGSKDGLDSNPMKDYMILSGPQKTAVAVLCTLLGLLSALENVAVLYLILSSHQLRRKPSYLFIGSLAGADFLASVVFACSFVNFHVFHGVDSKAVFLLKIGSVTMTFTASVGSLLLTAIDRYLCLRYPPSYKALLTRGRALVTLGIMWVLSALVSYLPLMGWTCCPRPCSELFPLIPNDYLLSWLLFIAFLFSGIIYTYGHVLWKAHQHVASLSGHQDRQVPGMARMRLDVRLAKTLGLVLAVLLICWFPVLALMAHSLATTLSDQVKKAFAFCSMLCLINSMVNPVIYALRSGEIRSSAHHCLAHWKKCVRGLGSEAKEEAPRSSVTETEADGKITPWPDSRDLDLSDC

[1] = Ratio of drug level in brain to plasma in Sprague-Dawley rat; type: ADME
[2] = Selectivity ratio of IC50 for human CB2 receptor to IC50 for CB1 receptor in Sprague-Dawley rat cerebellum; type: tissue-based
Mus musculus [3] = assay: Antiobesity activity in po dosed diet-induced obesity C57BL/6 mouse model assessed as reduction mean white adipocytes diameter qd for 14 days; type: functional, organism-based
Cytochrome P450 2C9 = Cytochrome P450 2C9 (Homo sapiens, UniProt P11712); assay: Inhibition of CYP2C9 in human liver microsomes after 30 mins; type: ADME, Microsome
Cytochrome P450 2C9, sequence (P11712 whole entry): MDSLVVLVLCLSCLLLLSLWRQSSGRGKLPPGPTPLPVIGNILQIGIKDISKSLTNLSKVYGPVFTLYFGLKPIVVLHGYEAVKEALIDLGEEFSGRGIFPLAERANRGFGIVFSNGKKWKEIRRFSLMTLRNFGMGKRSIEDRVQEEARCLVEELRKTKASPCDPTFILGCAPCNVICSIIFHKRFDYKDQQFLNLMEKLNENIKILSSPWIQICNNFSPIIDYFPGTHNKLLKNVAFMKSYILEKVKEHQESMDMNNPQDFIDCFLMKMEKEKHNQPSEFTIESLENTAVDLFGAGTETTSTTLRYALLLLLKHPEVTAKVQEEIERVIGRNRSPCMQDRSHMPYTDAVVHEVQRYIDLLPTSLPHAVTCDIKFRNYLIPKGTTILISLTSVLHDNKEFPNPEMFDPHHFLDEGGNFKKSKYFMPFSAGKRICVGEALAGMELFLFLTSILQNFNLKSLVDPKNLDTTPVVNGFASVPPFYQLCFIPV

Mus musculus [4] = assay: Antidiabetic activity in ob/ob mouse at 10 mg/kg, po qd for 14 days; type: functional, organism-based; set-up: dose 10 mg/kg
Rattus norvegicus [5] = assay: Clast in Sprague-Dawley rat at 1 mg/kg, iv; type: ADME, organism-based; set-up: dose 1 mg/kg, route intravenous; settings: in vivo
Rattus norvegicus [6] = assay: AUC (0 to infinity) in Sprague-Dawley rat at 5 mg/kg, po; type: ADME, organism-based, Plasma; set-up: time infinity, dose 5 mg/kg, route oral; settings: in vivo
Mus musculus [7] = assay: Antiobesity activity in diet-induced obesity C57BL/6 mouse model assessed as reduction of body weight at 10 mg/kg, po qd for 13 days; type: functional; set-up: scale not given: the % may be the effect or the level left
Mus musculus [8] = assay: Antidiabetic activity in db/db mouse at 10 mg/kg, po qd for 14 days; type: functional, organism-based; set-up: dose 10 mg/kg
Rattus norvegicus [9] = assay: Acute toxicity in rat assessed as mortality at 125 mg/kg, po qd for 7 days; type: organism-based; set-up: dose 125 mg/kg, route oral; settings: in vivo, 168 h
[10] = Oral bioavailability in Sprague-Dawley rat at 5 mg/kg, po; type: ADME, organism-based; settings: in vivo
Rattus norvegicus [11] = assay: Antiobesity activity in diet-induced obesity Sprague-Dawley rat model assessed as reduction of body weight administered at 10 mg/kg, po qd for 13 days; type: functional; set-up: scale not given: the % may be the effect or the level left
Nucleic Acid = assay: Induction of DNA damage up to 50 uM after 2 hrs by comet assay; type: nucleic-acid assay
Mus musculus [12] = assay: Antidiabetic activity in diet-induced obesity mouse model at 10 mg/kg, po qd for 14 days; type: functional, organism-based; set-up: dose 10 mg/kg
[13] = molecular target: Voltage-gated inwardly rectifying potassium channel KCNH2 (Homo sapiens, UniProt Q12809); assay: Inhibition of human ERG at holding potential of -80 mV to +40 mV
Voltage-gated inwardly rectifying potassium channel KCNH2, sequence (Q12809 whole entry): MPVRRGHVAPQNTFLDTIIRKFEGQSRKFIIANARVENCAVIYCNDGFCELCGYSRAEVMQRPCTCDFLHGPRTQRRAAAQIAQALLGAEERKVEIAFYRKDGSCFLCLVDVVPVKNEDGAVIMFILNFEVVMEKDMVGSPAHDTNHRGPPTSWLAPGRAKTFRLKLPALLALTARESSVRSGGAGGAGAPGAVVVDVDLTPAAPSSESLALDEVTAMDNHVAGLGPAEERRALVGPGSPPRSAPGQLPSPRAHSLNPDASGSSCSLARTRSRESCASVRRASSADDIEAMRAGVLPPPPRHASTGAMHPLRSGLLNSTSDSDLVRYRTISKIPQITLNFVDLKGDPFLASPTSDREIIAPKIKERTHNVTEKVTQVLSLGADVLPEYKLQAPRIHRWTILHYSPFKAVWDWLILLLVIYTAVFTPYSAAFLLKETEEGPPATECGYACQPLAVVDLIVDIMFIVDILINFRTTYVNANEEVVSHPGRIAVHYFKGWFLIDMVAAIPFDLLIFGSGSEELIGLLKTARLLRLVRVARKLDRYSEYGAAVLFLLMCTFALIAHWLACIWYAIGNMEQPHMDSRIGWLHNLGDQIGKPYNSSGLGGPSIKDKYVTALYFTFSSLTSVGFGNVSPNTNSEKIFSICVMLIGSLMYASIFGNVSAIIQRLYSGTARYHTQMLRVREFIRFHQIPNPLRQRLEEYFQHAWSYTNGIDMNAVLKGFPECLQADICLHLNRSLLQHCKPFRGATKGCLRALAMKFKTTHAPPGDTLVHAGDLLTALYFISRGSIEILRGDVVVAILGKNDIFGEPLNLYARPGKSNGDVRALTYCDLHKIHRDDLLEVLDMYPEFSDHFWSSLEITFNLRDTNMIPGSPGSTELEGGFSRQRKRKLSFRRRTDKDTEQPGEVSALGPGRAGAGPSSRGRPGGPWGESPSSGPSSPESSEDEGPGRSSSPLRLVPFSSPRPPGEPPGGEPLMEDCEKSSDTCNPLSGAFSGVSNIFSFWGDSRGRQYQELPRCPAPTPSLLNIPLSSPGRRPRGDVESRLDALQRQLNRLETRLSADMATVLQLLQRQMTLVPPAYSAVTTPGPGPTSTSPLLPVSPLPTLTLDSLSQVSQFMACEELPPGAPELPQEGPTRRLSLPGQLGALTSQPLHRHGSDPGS

Rattus norvegicus [14] = assay: Acute toxicity in rat assessed as mortality at 2000 mg/kg, po; type: organism-based; set-up: dose 2000 mg/kg, route oral; settings: in vivo
Rattus norvegicus [15] = assay: Clast in Sprague-Dawley rat at 5 mg/kg, po; type: ADME, organism-based; set-up: dose 5 mg/kg, route oral; settings: in vivo
HEK293 = assay: Cytotoxicity against human HEK293 cells; type: cell-based
[16] = Clearance in Sprague-Dawley rat at 1 mg/kg, iv; type: ADME, organism-based; set-up: dose 1 mg/kg, route intravenous; settings: in vivo
Mus musculus [17] = assay: Antiobesity activity in diet-induced obesity C57BL/6 mouse model assessed as reduction of body weight at 3 mg/kg, po qd for 13 days; type: functional
Rattus norvegicus [18] = assay: Acute toxicity in rat assessed as mortality at 1000 mg/kg, po qd for 7 days; type: organism-based; set-up: dose 1000 mg/kg, route oral; settings: in vivo, 168 h
Cytochrome P450 1A2 = molecular target: T1, Cytochrome P450 1A2 (Homo sapiens, UniProt P05177); assay: Inhibition of CYP1A2 in human liver microsomes after 30 mins; type: ADME, Microsome
T1 sequence (P05177 whole entry): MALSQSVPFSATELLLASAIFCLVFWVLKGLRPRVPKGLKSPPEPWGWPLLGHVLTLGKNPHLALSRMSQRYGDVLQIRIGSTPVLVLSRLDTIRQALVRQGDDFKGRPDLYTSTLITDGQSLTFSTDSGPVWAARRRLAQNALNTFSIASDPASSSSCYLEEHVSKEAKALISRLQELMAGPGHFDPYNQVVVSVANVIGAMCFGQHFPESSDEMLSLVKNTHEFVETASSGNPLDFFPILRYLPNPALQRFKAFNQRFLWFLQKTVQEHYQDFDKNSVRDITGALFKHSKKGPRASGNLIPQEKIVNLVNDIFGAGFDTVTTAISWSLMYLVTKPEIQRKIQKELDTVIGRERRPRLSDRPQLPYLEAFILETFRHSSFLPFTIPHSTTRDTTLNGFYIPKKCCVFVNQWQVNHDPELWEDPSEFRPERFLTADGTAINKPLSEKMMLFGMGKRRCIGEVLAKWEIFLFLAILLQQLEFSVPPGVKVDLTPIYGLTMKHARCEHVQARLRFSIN

[19] = Half life in Sprague-Dawley rat at 5 mg/kg, po; type: ADME, organism-based; set-up: dose 5 mg/kg, route oral; settings: in vivo
[20] = Cmax in Sprague-Dawley rat at 5 mg/kg, po; type: ADME, organism-based; set-up: dose 5 mg/kg, route oral; settings: in vivo
Mus musculus [21] = assay: Antiobesity activity in po dosed diet-induced obesity C57BL/6 mouse model assessed as reduction of body weight administered qd for 13 days; type: functional, organism-based
HCT-116 = assay: Cytotoxicity against human HCT116 cells; type: cell-based
Cytochrome P450 2D6 = Cytochrome P450 2D6 (Homo sapiens, UniProt P10635); assay: Inhibition of CYP2D6 in human liver microsomes after 30 mins; type: ADME, Microsome
Cytochrome P450 2D6, sequence (P10635 whole entry): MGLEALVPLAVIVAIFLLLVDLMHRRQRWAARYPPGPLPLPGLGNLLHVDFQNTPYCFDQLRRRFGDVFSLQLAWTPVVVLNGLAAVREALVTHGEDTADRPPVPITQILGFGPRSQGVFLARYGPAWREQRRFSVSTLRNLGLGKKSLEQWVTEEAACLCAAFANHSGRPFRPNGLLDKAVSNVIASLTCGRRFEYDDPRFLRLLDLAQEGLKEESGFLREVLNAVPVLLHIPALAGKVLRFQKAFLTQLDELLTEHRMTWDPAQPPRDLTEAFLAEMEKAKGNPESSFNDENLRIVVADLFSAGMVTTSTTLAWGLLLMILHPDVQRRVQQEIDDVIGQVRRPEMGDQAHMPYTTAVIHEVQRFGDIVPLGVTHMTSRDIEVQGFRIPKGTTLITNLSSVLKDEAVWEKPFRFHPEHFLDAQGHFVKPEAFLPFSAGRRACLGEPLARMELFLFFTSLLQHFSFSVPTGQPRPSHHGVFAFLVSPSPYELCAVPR

Rattus norvegicus [22] = assay: Acute toxicity in rat assessed as mortality at 500 mg/kg, po qd for 7 days; type: organism-based; set-up: dose 500 mg/kg, route oral; settings: in vivo, 168 h
Mus musculus [23] = assay: Antiobesity activity in diet-induced obesity C57BL/6 mouse model assessed as reduction of body weight at 10 mg/kg, po qd for 14 days; type: functional; set-up: scale not given: the % may be the effect or the level left
[24] = Half life in Sprague-Dawley rat at 1 mg/kg, iv; type: ADME, organism-based; set-up: dose 1 mg/kg, route intravenous; settings: in vivo
[25] = Acute toxicity in po dosed rat assessed as mortality; type: organism-based; settings: in vivo
[26] = Tmax in Sprague-Dawley rat at 5 mg/kg, po; type: ADME, organism-based; set-up: dose 5 mg/kg, route oral; settings: in vivo
Vero = assay: Cytotoxicity against african green monkey Vero cells; type: cell-based; settings: Chlorocebus sabaeus
Rattus norvegicus [27] = assay: AUC (0 to infinity) in Sprague-Dawley rat at 1 mg/kg, iv; type: ADME, organism-based, Plasma; set-up: time infinity, dose 1 mg/kg, route intravenous; settings: in vivo
Rattus norvegicus [28] = assay: Acute toxicity in rat assessed as mortality at 250 mg/kg, po qd for 7 days; type: organism-based; set-up: dose 250 mg/kg, route oral; settings: in vivo, 168 h
[29] = Mutagenic activity in Salmonella Typhimurium TA100 assessed as number of spontaneous and drug-induced revertants after 48 hrs by Ames test; type: toxicity; settings: salmonella enterica subsp. enterica serovar typhimurium
[30] = Cytotoxicity against human HuH7 cells; type: cell-based; settings: Huh-7
Rattus norvegicus [31] = assay: Acute toxicity in rat assessed as mortality at 1500 mg/kg, po; type: organism-based; set-up: dose 1500 mg/kg, route oral; settings: in vivo
[32] = Cmax in Sprague-Dawley rat at 1 mg/kg, iv; type: ADME, organism-based; set-up: dose 1 mg/kg, route intravenous; settings: in vivo
Mus musculus [33] = assay: Antiobesity activity in diet-induced obesity C57BL/6 mouse model assessed as reduction of body weight at 20 mg/kg, po qd for 13 days; type: functional; set-up: scale not given: the % may be the effect or the level left
Rattus norvegicus [34] = assay: Acute toxicity in po dosed rat; type: organism-based; settings: in vivo
Cannabinoid receptor 1 = Cannabinoid receptor 1 (Rattus norvegicus, UniProt P20272)
Cannabinoid receptor 1, sequence (P20272 whole entry): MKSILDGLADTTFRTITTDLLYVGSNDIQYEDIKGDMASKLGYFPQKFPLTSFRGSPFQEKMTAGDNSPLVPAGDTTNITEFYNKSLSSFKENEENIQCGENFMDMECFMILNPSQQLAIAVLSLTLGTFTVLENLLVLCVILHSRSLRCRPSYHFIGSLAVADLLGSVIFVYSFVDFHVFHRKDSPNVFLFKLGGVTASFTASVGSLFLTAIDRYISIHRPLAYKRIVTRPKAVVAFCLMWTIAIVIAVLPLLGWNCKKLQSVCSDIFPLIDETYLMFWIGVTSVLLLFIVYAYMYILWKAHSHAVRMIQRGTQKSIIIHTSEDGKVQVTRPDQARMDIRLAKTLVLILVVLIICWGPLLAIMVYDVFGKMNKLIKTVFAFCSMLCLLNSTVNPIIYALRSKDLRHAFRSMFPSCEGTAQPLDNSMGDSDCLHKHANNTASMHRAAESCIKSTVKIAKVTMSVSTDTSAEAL
Description: Displacement of [3H]CP-55940 from CB1 receptor in Sprague-Dawley rat cerebellum after 1 hr by liquid scintillation counting

Compound: CC(C)(C)c1nnc(-c2nn(-c3ccccc3Cl)c(-c3ccc(Br)cc3)c2Cn2cncn2)s1
- IC50 (Cytochrome P450 3A4): > 20 µM
- IC50 (Cannabinoid receptor 2): 0.549 µM
- BPR [1]: 58%
- Ratio IC50 [2]: 807
- Activity (Mus musculus [3]): Dose-dependent effect
- IC50 (Cytochrome P450 2C9): > 20 µM
- Activity (Mus musculus [4]): Active
- Clast (Rattus norvegicus [5]): 50 ng/mL
- AUC (Rattus norvegicus [6]): 369.72 min/µg/mL
- Activity (Mus musculus [7]): 34.9%
- Activity (Mus musculus [8]): Active
- Activity (Rattus norvegicus [9]): Non-toxic
- bioavailability [10]: 61.7%
- Activity (Rattus norvegicus [11]): 15.59%
- Activity (Nucleic Acid): Non-toxic
- Activity (Mus musculus [12]): Active
- IC50 [13]: 10.5 µM
- Activity (Rattus norvegicus [14]): Non-toxic
- Clast (Rattus norvegicus [15]): 30 ng/mL
- EC50 (HEK293): > 100 µM
- clearance [16]: 10.7 mL/min/kg
- Activity (Mus musculus [17]): Active
- Activity (Rattus norvegicus [18]): Non-toxic
- IC50 (Cytochrome P450 1A2): > 20 µM
- half-life [19]: 7.11 h
- Cmax [20]: 1530 ng/mL
- Activity (Mus musculus [21]): Dose-dependent effect
- EC50 (HCT-116): > 100 µM
- IC50 (Cytochrome P450 2D6): > 20 µM
- Activity (Rattus norvegicus [22]): Non-toxic
- Activity (Mus musculus [23]): 32.55%
- half-life [24]: 5.3 h
- LD50 [25]: > 2000 mg/kg
- Tmax [26]: 1 h
- EC50 (Vero): > 100 µM
- AUC (Rattus norvegicus [27]): 119.9 min/µg/mL
- Activity (Rattus norvegicus [28]): Non-toxic
- Activity [29]: Non-toxic
- EC50 [30]: > 100 µM
- Activity (Rattus norvegicus [31]): Non-toxic
- Cmax [32]: 2500 ng/mL
- Activity (Mus musculus [33]): 38.06%
- Activity (Rattus norvegicus [34]): 125 mg/kg
- IC50 (Cannabinoid receptor 1): 0.000681 µM
